Test results from a compilation of properties of binary mixtures (doi:10.1016/j.molliq.2018.05.059).

Assay: xn = mol fraction of the nth substance listed
Conditions: 298 K, 101 kPa

SMILES: CC(=O)[O-].CCC[N+]1(C)CCN(C)CC1 + CC#N
- electrical conductivity (x2 = 0.806): 1.82 S/m
- electrical conductivity (x2 = 0.819): 1.89 S/m
- electrical conductivity (x2 = 0.832): 1.95 S/m
- electrical conductivity (x2 = 0.843): 1.98 S/m
- electrical conductivity (x2 = 0.852): 1.98 S/m
- electrical conductivity (x2 = 0.859): 2.04 S/m
- electrical conductivity (x2 = 0.874): 2.01 S/m
- electrical conductivity (x2 = 0.884): 2.04 S/m
- electrical conductivity (x2 = 0.895): 2.06 S/m
- electrical conductivity (x2 = 0.902): 2.06 S/m
- electrical conductivity (x2 = 0.919): 2.04 S/m
- electrical conductivity (x2 = 0.931): 2.01 S/m
- electrical conductivity (x2 = 0.937): 1.94 S/m
- electrical conductivity (x2 = 0.95): 1.85 S/m

SMILES: CC(O)C(=O)[O-].CCC[N+]1(C)CCN(C)CC1 + CC#N
- electrical conductivity (x2 = 0.808): 1.52 S/m
- electrical conductivity (x2 = 0.835): 1.72 S/m
- electrical conductivity (x2 = 0.856): 1.83 S/m
- electrical conductivity (x2 = 0.872): 1.91 S/m
- electrical conductivity (x2 = 0.89): 1.99 S/m
- electrical conductivity (x2 = 0.898): 1.99 S/m
- electrical conductivity (x2 = 0.907): 2.04 S/m
- electrical conductivity (x2 = 0.918): 2.05 S/m
- electrical conductivity (x2 = 0.927): 2.05 S/m
- electrical conductivity (x2 = 0.939): 2.01 S/m
- electrical conductivity (x2 = 0.945): 1.96 S/m
